# Data as given in patent US7560454B2, “Condensed azepines as vasopressin agonists” (Vantia Limited, priority 2000, dated 2009).
# System: Brattleboro rat
# Test: inhibition of urine output in Brattleboro rats
# Type: in vivo
# Conditions: 1 mg/kg p.o. in methylcellulose, vs control animals
# Description: The Brattleboro rat is a recognised model for vasopressin deficiency (for a review see F D Grant, “Genetic models of vasopressin deficiency”, Exp. Physiol. 85, 203S-209S, 2000). […] Compounds of the invention were administered to Brattleboro rats (0.1-10 mg/kg p.o. in methylcellulose. Urine was collected hourly and volumes were compared with control animals. Animals had free access to food and water throughout the experiment. Representative results are given in the Table. Results for Desmopressin are given for comparison.
smiles,measurement,value
"Cc1cc(C(=O)N2CCCCc3ccccc32)ccc1CNC(=O)N1CCC[C@H]1C(=O)N(C)C [Example 1, 1-(2-Methyl-4-(2,3,4,5-tetrahydro-1-benzazepin-1-ylcarbonyl)benzylcarbamoyl)-L-proline-N,N-dimethylamide]",% inhibition of urine output (at 1 hour),82%
